Test [1] concerns primary human mesenchymal stem cells (hMSCs). The experiment in a line: Induction of chondrogenesis in primary human mesenchymal stem cells (nodule count). It counts as cell-based. The settings on record: 144 h, 6 days; for Emax: TGF-β3 10 ng/mL as positive control, read-out: Max. Activity as % TGF-β3 activity; for EC50: concentration required to induce 50% levels of chondrogenesis vs TGF-β3, read-out: Conc (nM) of 50% TGF-β3 activity. The method, then:
Representative compounds were screened using primary human mesenchymal stem cells (hMSCs) to determine their ability to induce chondrogenesis (process by which cartilage is developed).
Human Mesenchymal Stem Cell Culture: Primary human mesenchymal stem cells (hMSCs) were purchased from Lonza (Walkersville, Md.) and expanded in Mesenchymal Stem Cell Growth Media (Lonza). Cells between passage 3 and 6 were used for the experiments.
Compound Screening: Each compound was dissolved in DMSO as a 10 mM stock and used to prepare compound source plates. Serial dilution (1:3, 6-point dose-response curves from 2700 nM to 10 nM) and compound transfer was performed using the ECHO 550 (Labcyte, Sunnyvale, Calif.) into 96-well clear bottom assay plates (Greiner Bio-One) with appropriate DMSO backfill for a final DMSO concentration of 0.03%. hMSCs were plated at 20,000 cells/well in 250 μL/well Incomplete Chondrogenic Induction Medium (Lonza; DMEM, dexamethasone, ascorbate, insulin-transferrin-selenium [ITS supplement], gentamycin-amphotericin [GA-1000], sodium pyruvate, proline and L-glutamine). TGF-β3 (10 ng/mL) was used as a positive control for differentiation while negative control wells were treated with 75 nL DMSO for normalization and calculating EC50 values. Cells were incubated at 37° C. and 5% CO2 for 6 days. To image chondrogenic nodules, the cells were fixed using 4% formaldehyde (Electron Microscopy Sciences), and stained with 2 μg/mL Rhodamine B (Sigma-Aldrich) and 20 μM Nile Red (Sigma-Aldrich) [Johnson K., et. al, A Stem Cell-Based Approach to Cartilage Repair, Science, (2012), 336(6082), 717-721]. The nodules imaged (4 images per well at 4× magnification) by excitation at 531 nm and emission at 625 nm and quantified using the CellInsight CX5 (Thermo Scientific). Number of nodules in each well was normalized to the average of 3 DMSO treated wells on the same plate using Excel (Microsoft Inc.). The normalized averages (fold change over DMSO) of 3 replicate wells for each compound concentration were calculated. Due to solubility limitations of some of the compounds, curve fitting was incomplete leading to inaccurate EC50 determinations.
Using TGF-β3 as a positive control, the concentration of representative compounds required to induce 50% levels of chondrogenesis is reported. In addition, the maximum activity of each compound and the respective dose that each compound reached maximum chondrogenesis activity is reported.

The subject of the next test is IL-6. The test is described as follows: IL-6 inhibition in LPS-stimulated THP-1 cells (HTRF). Format: cell-based. Particulars: Homo sapiens; for EC50: LPS 500 ng/mL, 22 hours, IL6 HTRF; for inhibition at 10 µM: given for EC50 >10 μM, LPS, IL6, 10 μM, read-out: percent inhibition at 10 μM. The method, then: Human Monocyte Cell Culture: Human monocyte cell line (THP-1 cells; Catalog # TIB-202, ATCC, Manassas, Va.) were cultured in Roswell Park Memorial Institute (RPMI) 1640 Medium (Catalog #21870-100, Buffalo, N.Y.) with 1% L-glutamine, 1% HEPES, 1% Sodium Pyruvate, 2% Sodium Bicarbonate supplemented with 100 units/mL penicillin, 50 μg/mL streptomycin, 2-mercaptoethanol (0.05 mM) [basal medium] and 10% fetal bovine serum (Catalog #16140089, Life Technologies, Carlsbad, Calif.) at 37° C. and 5% CO2.
Compound Screening: THP-1 cells were cultured in basal media with 1% FBS for 24 hours before the start of the assay. Each compound was dissolved in DMSO as a 10 mM stock and used to prepare compound source plates. Serial dilution (1:3, 10-point dose-response curves starting from 1 μM) and compound transfer was performed using the ECHO 550 (Labcyte, Sunnyvale, Calif.) into 384-well white low volume assay plates (Greiner Bio-One) with appropriate DMSO backfill for a final DMSO concentration of 0.1%. THP-1 cells were plated at 5000 cells/well in the 384-well plates and incubated at 37° C. for 2 h. 500 ng/mL of LPS was added after 2 hours and cells were incubated for another 22 hours at 37° C. Plates were spun in a centrifuge for 1 minute at 10,000 rpm and a mixture of anti-IL6 XL665, and anti-IL6 Cryptate diluted in reconstitution buffer (Cisbio Inc.) was added to each well. Following incubation for 3 hrs at room temperature, Homogeneous Time-Resolved Fluorescence (HTRF) was measured using the Envision (Perkin Elmer) at 665 nm and […]. The ratio of fluorescence at 665 nm to 620 nm was used as a readout for IL6 quantification. All samples were processed in duplicate. Readings were normalized to DMSO treated cells and normalized activities were utilized for EC50 calculations using the dose-response log (inhibitor) vs. response-variable slope (four parameters) nonlinear regression feature available in GraphPad Prism 5.0 (or Dotmatics). For EC50 of >10 μM, the percent inhibition at 10 μM is provided.

Bounds are passed on as bounds.

The term inhibition denotes the relative decrease from the control value, in per cent.

For the molecule `Fc1cccc(-c2nccc3[nH]c(-c4n[nH]c5ccc(-c6cccnc6)nc45)cc23)c1` [Compound 4, 3-(4-(3-Fluorophenyl)-1H-pyrrolo[3,2-c]pyridin-2-yl)-5-(pyridin-3-yl)-1H-pyrazolo[4,3-b]pyridine], the Emax in test [1] turned out to be 45%. The EC50 with IL-6 is 0.051 µM.
As for `CN(C)c1cncc(-c2ccc3[nH]nc(-c4cc5c(-c6cccc(F)c6)nccc5[nH]4)c3n2)c1` [Compound 7, 5-(3-(4-(3-Fluorophenyl)-1H-pyrrolo[3,2-c]pyridin-2-yl)-1H-pyrazolo[4,3-b]pyridin-5-yl)-N,N-dimethylpyridin-3-amine], the Emax in test [1] came out at 153%. The EC50 was 2700 nM in test [1] and 0.104 µM with IL-6.
In the case of `Fc1cccc(-c2nccc3[nH]c(-c4n[nH]c5ccc(-c6cncc(CN7CCCCC7)c6)nc45)cc23)c1` [Compound 15, 3-(4-(3-Fluorophenyl)-1H-pyrrolo[3,2-c]pyridin-2-yl)-5-(5-(piperidin-1-ylmethyl)pyridin-3-yl)-1H-pyrazolo[4,3-b]pyridine], the Emax in test [1] came out at 48%. This molecule showed an EC50 in the test with IL-6 of 9.37 µM.
For the molecule `O=C(Nc1cncc(-c2ccc3[nH]nc(-c4cc5c(-c6cccc(F)c6)nccc5[nH]4)c3n2)c1)C1CCCCC1` [Compound 23, N-(5-(3-(4-(3-Fluorophenyl)-1H-pyrrolo[3,2-c]pyridin-2-yl)-1H-pyrazolo [4,3-b]pyridin-5-yl)pyridin-3-yl)cyclohexanecarboxamide], in the test on IL-6, the EC50 is more than 10 µM and the inhibition at 10 µM turned out to be 10.6%.
On to `Cc1ccncc1-c1ccc2[nH]nc(-c3cc4c(-c5ccc(F)cc5)nccc4[nH]3)c2n1` [Compound 33, 3-(4-(4-Fluorophenyl)-1H-pyrrolo[3,2-c]pyridin-2-yl)-5-(4-methylpyridin-3-yl)-1H-pyrazolo[4,3-b]pyridine], for which, in the test on IL-6, the EC50 was more than 10 µM and the inhibition at 10 µM was determined as 31.3%.
Regarding `O=C(Nc1cncc(-c2ccc3[nH]nc(-c4cc5c(-c6ccc(F)cc6)nccc5[nH]4)c3n2)c1)c1ccccc1` [Compound 39, N-(5-(3-(4-(4-Fluorophenyl)-1H-pyrrolo[3,2-c]pyridin-2-yl)-1H-pyrazolo [4,3-b]pyridin-5-yl)pyridin-3-yl)benzamide], in the test with IL-6, the EC50 was more than 10 µM and the inhibition at 10 µM was 3.3%.
For `Fc1ccc(-c2nccc3[nH]c(-c4n[nH]c5ccc(-c6cncc(CN7CCC(F)(F)C7)c6)nc45)cc23)cc1` [Compound 54, 5-(5-((3,3-Difluoropyrrolidin-1-yl)methyl)pyridin-3-yl)-3-(4-(4-fluorophenyl)-1H-pyrrolo[3,2-c]pyridin-2-yl)-1H-pyrazolo[4,3-b]pyridine], in test [1], the Emax came to 106% and the EC50 was 900 nM. In the test on IL-6, this molecule displayed an EC50 of 0.121 µM.
Turning to `CC(C)CC(=O)Nc1cncc(-c2ccc3[nH]nc(-c4cc5c(-c6ccccc6F)nccc5[nH]4)c3n2)c1` [Compound 58, N-(5-(3-(4-(2-Fluorophenyl)-1H-pyrrolo[3,2-c]pyridin-2-yl)-1H-pyrazolo [4,3-b]pyridin-5-yl)pyridin-3-yl)-3-methylbutanamide], the Emax in test [1] is 36%. For the same molecule, the EC50 with IL-6 amounted to 0.074 µM.
In the same order, the values of `CN(C)Cc1cncc(-c2ccc3[nH]nc(-c4cc5c(-c6ccccc6F)nccc5[nH]4)c3n2)c1` [Compound 69, 1-(5-(3-(4-(2-Fluorophenyl)-1H-pyrrolo[3,2-c]pyridin-2-yl)-1H-pyrazolo [4,3-b]pyridin-5-yl)pyridin-3-yl)-N,N-dimethylmethanamine] are 7% and 1.15 µM.
The matching figures for `O=C(Nc1cncc(-c2ccc3[nH]nc(-c4cc5c(-c6ccccc6F)nccc5[nH]4)c3n2)c1)C1CC1` [Compound 76, N-(5-(3-(4-(2-Fluorophenyl)-1H-pyrrolo[3,2-c]pyridin-2-yl)-1H-pyrazolo [4,3-b]pyridin-5-yl)pyridin-3-yl)cyclopropanecarboxamide]: 25% and 0.095 µM.
With `Fc1ccccc1-c1nccc2[nH]c(-c3n[nH]c4ccc(-c5cncc(CNCc6ccccc6)c5)nc34)cc12` [Compound 80, N-Benzyl-1-(5-(3-(4-(2-fluorophenyl)-1H-pyrrolo[3,2-c]pyridin-2-yl)-1H-pyrazolo[4,3-b]pyridin-5-yl)pyridin-3-yl)methanamine], in test [1], the Emax is 110% and the EC50 is 10 nM. The molecule also came in with an EC50 with IL-6 of 9.1 µM.
In turn, `Fc1ccccc1-c1nccc2[nH]c(-c3n[nH]c4ccc(-c5cncnc5)nc34)cc12` [Compound 83, 3-(4-(2-Fluorophenyl)-1H-pyrrolo[3,2-c]pyridin-2-yl)-5-(pyrimidin-5-yl)-1H-pyrazolo[4,3-b]pyridine] showed an EC50 in the test on IL-6 of 0.061 µM.
On to `Nc1cncc(-c2ccc3[nH]nc(-c4cc5c(-c6ccncc6)nccc5[nH]4)c3n2)c1` [Compound 115, 5-(3-(4-(Pyridin-4-yl)-1H-pyrrolo[3,2-c]pyridin-2-yl)-1H-pyrazolo[4,3-b]pyridin-5-yl)pyridin-3-amine], for which the EC50 with IL-6 is 0.421 µM.
Same read-out and setting: in the case of `CC(C)CC(=O)Nc1cncc(-c2ccc3[nH]nc(-c4cc5c(N6CCN(C)CC6)nccc5[nH]4)c3n2)c1` [Compound 226, 3-Methyl-N-(5-(3-(4-(4-methylpiperazin-1-yl)-1H-pyrrolo[3,2-c]pyridin-2-yl)-1H-pyrazolo[4,3-b]pyridin-5-yl)pyridin-3-yl)butanamide] it was 3.14 µM.
As to `CN1CCN(c2nccc3[nH]c(-c4n[nH]c5ccc(-c6cncc(NC(=O)c7ccccc7)c6)nc45)cc23)CC1` [Compound 235, N-(5-(3-(4-(4-Methylpiperazin-1l-yl)-1H-pyrrolo[3,2-c]pyridin-2-yl)-1H-pyrazolo[4,3-b]pyridin-5-yl)pyridin-3-yl)benzamide], in the test with IL-6, the EC50 is 1 µM.
Take `c1csc(-c2nccc3[nH]c(-c4n[nH]c5ccc(-c6ccncc6)nc45)cc23)c1` [Compound 354, 5-(Pyridin-4-yl)-3-(4-(thiophen-2-yl)-1H-pyrrolo[3,2-c]pyridin-2-yl)-1H-pyrazolo[4,3-b]pyridine]: in the test with IL-6, the EC50 is more than 10 µM and the inhibition at 10 µM was 43.5%.
For the molecule `Fc1cccc(-c2nccc3[nH]c(-c4n[nH]c5ccc(-c6cncc(OCc7ccccc7)c6)nc45)cc23)c1` [Compound 518, 5-(5-(Benzyloxy)pyridin-3-yl)-3-(4-(3-fluorophenyl)-1H-pyrrolo[3,2-c]pyridin-2-yl)-1H-pyrazolo[4,3-b]pyridine], in the test on IL-6, the EC50 was more than 10 µM and the inhibition at 10 µM turned out to be 27.5%.
As for `CN1CCN(c2nccc3[nH]c(-c4n[nH]c5ccc(-c6cncc(NC(=O)CC7CCNCC7)c6)nc45)cc23)CC1` [Compound 641, N-(5-(3-(4-(4-Methylpiperazin-1l-yl)-1H-pyrrolo[3,2-c]pyridin-2-yl)-1H-pyrazolo[4,3-b]pyridin-5-yl)pyridin-3-yl)-2-(piperidin-4-yl)acetamide], in the test with IL-6, the EC50 is more than 10 µM and the inhibition at 10 µM was 20.6%.

The values above are taken from patent US10231956B2, “3-(1H-pyrrolo[3,2-C]pyridin-2-YL)-1 H-pyrazolo[4,3-B]pyridines and therapeutic uses thereof” (Samumed, LLC, priority 2015, dated 2019).
